Test results reported in patent US9957264B2 (Merck Sharp & Dohme Corp., priority 2013, dated 2018).

How the values were obtained:
[1] = biological target: JAK2 (recombinant purified GST-tagged catalytic domain) (Homo sapiens (Human), UniProt O60674); test: Jak Biochemical HTRF Assay (JAK2); conditions: [ATP] 8.5 μM
[2] = biological target: JAK1 (recombinant purified GST-tagged catalytic domain) (Homo sapiens (Human), UniProt P23458); test: Jak Biochemical HTRF Assay (JAK1); conditions: [ATP] 31.8 μM
Chain of JAK1 (recombinant purified GST-tagged catalytic domain) (P23458 875-1153): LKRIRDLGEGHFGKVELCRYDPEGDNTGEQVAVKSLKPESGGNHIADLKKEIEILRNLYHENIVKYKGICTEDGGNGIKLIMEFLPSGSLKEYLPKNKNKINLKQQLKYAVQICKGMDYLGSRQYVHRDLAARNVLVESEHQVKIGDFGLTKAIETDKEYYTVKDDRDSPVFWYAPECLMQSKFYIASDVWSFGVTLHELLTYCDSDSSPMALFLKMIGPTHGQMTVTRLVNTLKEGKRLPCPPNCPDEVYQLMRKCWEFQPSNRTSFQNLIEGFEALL
Procedure, shortened: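 Compounds in DMSO were pre-equilibrated with enzyme and biotinylated peptide, then ATP was added and the reaction proceeded 120 min at room temperature. EDTA-based stop buffer with detection reagents was added, and after 60 min the time-resolved FRET ratio was read. IC50s came from 4-parameter dose–response fits.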

Chain of JAK2 (recombinant purified GST-tagged catalytic domain) (O60674 849-1124): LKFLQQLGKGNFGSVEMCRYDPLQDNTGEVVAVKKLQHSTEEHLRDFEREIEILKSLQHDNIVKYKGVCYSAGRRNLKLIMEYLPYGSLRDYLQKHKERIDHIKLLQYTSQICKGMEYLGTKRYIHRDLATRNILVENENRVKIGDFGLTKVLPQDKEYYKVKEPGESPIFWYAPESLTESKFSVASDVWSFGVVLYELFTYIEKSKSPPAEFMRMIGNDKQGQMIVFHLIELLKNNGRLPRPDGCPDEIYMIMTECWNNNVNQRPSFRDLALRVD

SMILES | IC50 [1] [nM] | IC50 [2] [nM]
CC(C)NC(c1ccc(Nc2nn([C@]3(CC#N)CC[C@@H](C(=O)OC(C)(C)C)OC3)c3cc[nH]c(=O)c23)cc1)C(F)(F)F (single isomer, unassigned) [Example 5-210, (2S,5S)-tert-butyl 5-(cyanomethyl)-5-(4-oxo-3-((4-((R or S)-2,2,2-trifluoro-1-(isopropylamino)ethyl)phenyl)amino)-4,5-dihydro-1H-pyrazolo[4,3-c]pyridin-1-yl)tetrahydro-2H-pyran-2-carboxylate] | 0.51 | 0.41
CC(c1ccc(Nc2nn([C@]3(CC#N)CC[C@@H](C(=O)OC(C)(C)C)OC3)c3cc[nH]c(=O)c23)cc1)N1CCCC1 (single isomer, unassigned) [Example 5-211, (2S,5S)-tert-butyl 5-(cyanomethyl)-5-(4-oxo-3-((4-((S or R)-1-(pyrrolidin-1-yl)ethyl)phenyl)amino)-4,5-dihydro-1H-pyrazolo [4,3-c]pyridin-1-yl) tetrahydro-2H-pyran-2-carboxylate] | 0.12 | 0.19
CC(c1ccc(Nc2nn([C@]3(CC#N)CC[C@@H](C(=O)OC(C)(C)C)OC3)c3cc[nH]c(=O)c23)cc1)N1CCCC1 (single isomer, unassigned) [Example 5-212, (2S,5S)-tert-butyl 5-(cyanomethyl)-5-(4-oxo-3-((4-((S or R)-1-(pyrrolidin-1-yl)ethyl)phenyl)amino)-4,5-dihydro-1H-pyrazolo [4,3-c]pyridin-1-yl) tetrahydro-2H-pyran-2-carboxylate] | 0.15 | 0.22
CN(C)C(c1ccc(Nc2nn([C@]3(CC#N)CC[C@@H](C(=O)OC(C)(C)C)OC3)c3cc[nH]c(=O)c23)cc1)C(F)(F)F (single isomer, unassigned) [Example 5-213, (2S,5S)-tert-butyl 5-(cyanomethyl)-5-(3-((4-((R or S)-1-(dimethylamino)-2,2,2-trifluoroethyl)phenyl)amino)-4-oxo-4,5-dihydro-1H-pyrazolo[4,3-c]pyridin-1-yl)tetrahydro-2H-pyran-2-carboxylate] | 0.29 | 0.19
CN(C)C(c1ccc(Nc2nn([C@]3(CC#N)CC[C@@H](C(=O)OC(C)(C)C)OC3)c3cc[nH]c(=O)c23)cc1)C(F)(F)F (single isomer, unassigned) [Example 5-214, (2S,5S)-tert-butyl 5-(cyanomethyl)-5-(3-((4-((R or S)-1-(dimethylamino)-2,2,2-trifluoroethyl)phenyl)amino)-4-oxo-4,5-dihydro-1H-pyrazolo[4,3-c]pyridin-1-yl)tetrahydro-2H-pyran-2-carboxylate] | 0.32 | 0.2
CC(C)S(=N)(=O)c1ccc(Nc2nn([C@]3(CC#N)CCCOC3)c3cc[nH]c(=O)c23)cc1 (single isomer, unassigned) [Example 5-232, 2-((3S)-3-(4-oxo-3-((4-(propan-2-yl-(S or R)-sulfonimidoyl)phenyl)amino)-4,5-dihydro-1H-pyrazolo[4,3-c]pyridin-1-yl)tetrahydro-2H-pyran-3-yl)acetonitrile] | 0.6 | 0.27
CC(C)S(=N)(=O)c1ccc(Nc2nn([C@]3(CC#N)CCCOC3)c3cc[nH]c(=O)c23)cc1 (single isomer, unassigned) [Example 5-233, 2-((3S)-3-(4-oxo-3-((4-(propan-2-yl-(S or R)-sulfonimidoyl)phenyl)amino)-4,5-dihydro-1H-pyrazolo[4,3-c]pyridin-1-yl)tetrahydro-2H-pyran-3-yl)acetonitrile] | 0.4 | 0.36
N#CC[C@@]1(n2nc(Nc3ccc(C#N)cc3)c3c(=O)[nH]ccc32)CCOC1 (single isomer, unassigned) [Example 5-239, 4-({1-[(3R or 3S)-3-(cyanomethyl)tetrahydrofuran-3-yl]-4-oxo-4,5-dihydro-1H-pyrazolo[4,3-c]pyridin-3-yl}amino)benzonitrile] | 16.7 | 2.29
N#CC[C@]1(n2nc(Nc3ccc(C#N)cc3)c3c(=O)[nH]ccc32)CCOC1 (single isomer, unassigned) [Example 5-240, 4-({1-[(3S or 3R)-3-(cyanomethyl)tetrahydrofuran-3-yl]-4-oxo-4,5-dihydro-1H-pyrazolo[4,3-c]pyridin-3-yl}amino)benzonitrile] | 79.9 | 13
N#CC[C@@]1(n2nc(Nc3ccc(Cl)cc3)c3c(=O)[nH]ccc32)CCOC1 (single isomer, unassigned) [Example 5-241, [(3R or 3S)-3-{3-[(4-chlorophenyl)amino]-4-oxo-4,5-dihydro-1H-pyrazolo[4,3-c]pyridin-1-yl}tetrahydrofuran-3-yl]acetonitrile] | 23.4 | 2.62
N#CC[C@]1(n2nc(Nc3ccc(Cl)cc3)c3c(=O)[nH]ccc32)CCOC1 (single isomer, unassigned) [Example 5-242, [(3S or 3R)-3-{3-[(4-chlorophenyl)amino]-4-oxo-4,5-dihydro-1H-pyrazolo[4,3-c]pyridin-1-yl}tetrahydrofuran-3-yl]acetonitrile] | 130 | 14
N#CC[C@@]1(n2nc(Nc3cc(F)c4nccc(Cl)c4c3)c3c(=O)[nH]ccc32)CCOC1 (single isomer, unassigned) [Example 5-243, [(3R or 3S)-3-{3-[(4-chloro-8-fluoroquinolin-6-yl)amino]-4-oxo-4,5-dihydro-1H-pyrazolo[4,3-c]pyridin-1-yl}tetrahydrofuran-3-yl]acetonitrile] | 100 | 6.62
N#CC[C@]1(n2nc(Nc3cc(F)c4nccc(Cl)c4c3)c3c(=O)[nH]ccc32)CCOC1 (single isomer, unassigned) [Example 5-244, [(3S or 3R)-3-{3-[(4-chloro-8-fluoroquinolin-6-yl)amino]-4-oxo-4,5-dihydro-1H-pyrazolo[4,3-c]pyridin-1-yl}tetrahydrofuran-3-yl]acetonitrile] | 348 | 23
N#CC[C@@]1(n2nc(Nc3ccc4nccc(F)c4c3)c3c(=O)[nH]ccc32)CCOC1 (single isomer, unassigned) [Example 5-245, [(3R or 3S)-3-{3-[(4-fluoroquinolin-6-yl)amino]-4-oxo-4,5-dihydro-1H-pyrazolo[4,3-c]pyridin-1-yl}tetrahydrofuran-3-yl]acetonitrile] | 42.3 | 3.93
N#CC[C@]1(n2nc(Nc3ccc4nccc(F)c4c3)c3c(=O)[nH]ccc32)CCOC1 (single isomer, unassigned) [Example 5-246, [(3S or 3R)-3-{3-[(4-fluoroquinolin-6-yl)amino]-4-oxo-4,5-dihydro-1H-pyrazolo[4,3-c]pyridin-1-yl}tetrahydrofuran-3-yl]acetonitrile] | 172 | 16.8
CC(C)(C)N1Cc2cc(Nc3nn([C@@]4(CC#N)CCOC4)c4cc[nH]c(=O)c34)ccc2S1(=O)=O (single isomer, unassigned) [Example 5-247, (S or R)-2-(3-(3-((2-(tert-butyl)-1,1-dioxido-2,3-dihydrobenzo[d]isothiazol-5-yl)amino)-4-oxo-4,5-dihydro-1H-pyrazolo[4,3-c]pyridin-1-yl)tetrahydrofuran-3-yl)acetonitrile] | 2.24 | 0.11
